In patent publication US10334847B2, “Antifungal composition” (The University of Sussex, priority 2014, dated 2019):

Key:
[1] = system: microbial alternative oxidase (AOX); conditions: disclosed in WO 2013/160670; cited from earlier work
Chalara fraxinea = experiment: Agar plate growth inhibition assay of fungicides against fungi (Chalara fraxinea); format: cell-based; conditions: Chalara fraxinea on YPG agar plates, 3-5 days at 30° C.; compounds used separately or in combination
Description: Example 1—Assays Used to Test Fungicides Against Fungi (e.g. Chalara fraxinea)
• 2% Yeast extract • 2% Peptone • 2% D-glucose • 2% agar YPG • 2% Yeast extract • 2% Peptone • 2% Glycerol • 2% agar Fungicide Formulations
Colletochlorin B was synthesised using the methodology described in WO 2013/160670 with reference to FIG. 7. Then, 1 μM of Colletochlorin B is separately combined with […] of each of the following fungicides to produce seven different formulations:— • 1) Metalaxyl—belongs to the phenylamide fungicide family (Sukul, P. and M. Spiteller (2000) “Metalaxyl: persistence, degradation, metabolism, and analytical methods.” Rev Environ Contam Toxicol 164: 1-26); • 2) Azoxystrobin—belongs to the strobilurin family; • 3) DMI (DeMethylation Inhibitor); • 4) CuPC33—A copper based compound; • 5) Boscalid; • 6) Difenconcozole; and • 7) Pyraclostrobin. Methods • 1. Yeast strains are streaked out and grown on YPD agar plates for 3 days at 30° C. • 2. 5 mL of YPD liquid media is inoculated with a fungal strain of interest (e.g. Chalara fraxinea) and grown for 3 days at 30° C. with shaking at 180 rpm. • 3. 1 μL inoculum of the fungal strain is added to 9999 μL YPG liquid media and gently mixed. • 4. […] The degree of inhibition of fungal/yeast growth caused by the inhibitors is then assessed. […]

cytochrome bc1 complex = conditions: disclosed in WO 2013/160670; cited from earlier work
S. cerevisiae = experiment: Agar plate growth inhibition assay against S. cerevisiae; format: cell-based; conditions: S. cerevisiae on YPG agar plates, 1 μM of each compound, alone or in combination, 3-5 days at 30° C.; FIG. 8
Description: The inventors tested the efficacy of a combination of Colletochlorin B and azoxystrobin on the growth of S. cerevisiae. As in Example 1, Colletochlorin B was synthesised using the methodology described in WO 2013/160670 with reference to FIG. 7.
• 1. S. cerevisiae was streaked out and grown up on YPD agar plates for 3 days at 30° C. • 2. 5 mL of YPG liquid media was inoculated with S. cerevisiae from the YPD plates and grown for 3 days at 30° C. with shaking at 180 rpm to produce a cell culture. • 3. Approximately 5×10^5 cells of the S. cerevisiae were then plated out onto YPG agar plates containing 1 μM Colletochlorin B, or 1 μM azoxystrobin, or a combination of 1 μM Colletochlorin and 1 μM azoxystrobin. • 4. The plates were incubated for 3-5 days at 30° C. • 5. The degree of inhibition of fungal/yeast growth caused by the inhibitors was then assessed.
For each plate, the yeast colony grown in the centre at the top was not grown in the presence of any inhibitor acting as a negative control. However, for the plate shown in FIG. 8A, the colony shown on the lower left was grown in the presence of only 1 μM Colletochlorin B, and for the plate shown in FIG. 8B, the colony shown on the lower left was grown in the presence of only 1 μM azoxystrobin. […]

| Compound | inhibition of AOX [1] | degree of inhibition of fungal growth (Chalara fraxinea) | inhibition of cytochrome bc1 complex (cytochrome bc1 complex) | degree of inhibition of fungal/yeast growth (S. cerevisiae) |
| --- | --- | --- | --- | --- |
| CC(C)=CCC/C(C)=C/Cc1c(O)c(Cl)c(C)c(C=O)c1O [Colletochlorin B] | particularly effective inhibition | partial growth inhibition | particularly effective inhibition | partial growth inhibition |
| CO/C=C(/C(=O)OC)c1ccccc1Oc1cc(Oc2ccccc2C#N)ncn1 [Azoxystrobin, reference compound] | – | partial growth inhibition | – | partial growth inhibition |
